This is an account of results in patent US8114862B2, “TGR5 modulators and methods of use thereof” (Intercept Pharmaceuticals, Inc., priority 2008, dated 2012).

Molecules are shown by their SMILES. Where two headings read alike, the source gives them in different places. Marks after values point to notes of the source that are not given here.

One data set has as its target T1, hFXR (Homo sapiens, UniProt Q96RI1).
T1 construct: expressed in transfected cells; host or cells: COS1 cells
In words: FXR luciferase reporter assay in COS1 cells. It counts as cell-based.

In data set [1] the target is T2, TGR5 (Homo sapiens, UniProt Q8TDU6).
T2 sequence (Q8TDU6 1-330): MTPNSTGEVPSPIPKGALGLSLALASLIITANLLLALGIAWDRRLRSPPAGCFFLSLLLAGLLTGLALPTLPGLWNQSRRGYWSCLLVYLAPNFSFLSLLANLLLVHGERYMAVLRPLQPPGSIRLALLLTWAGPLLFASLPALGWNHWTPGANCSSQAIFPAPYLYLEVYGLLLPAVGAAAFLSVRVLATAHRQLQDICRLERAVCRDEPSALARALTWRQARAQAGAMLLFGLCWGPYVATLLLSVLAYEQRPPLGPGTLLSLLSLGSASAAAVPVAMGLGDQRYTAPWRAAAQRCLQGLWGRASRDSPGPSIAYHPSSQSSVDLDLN
In words: CRE-driven luciferase reporter assay in TGR5-transfected CHO cells. It counts as cell-based. Also on record: host or cells: CHO cells. (In general: In a reporter assay the amount or activity of a reporter protein is the signal.)

The target in another data set is human FXR (Homo sapiens, UniProt Q96RI1). In words: FRET recruitment of SRC-1 peptide to human FXR, cell-free ELiSA.
Data set [2] has as its target T2, TGR5. In words: TGR5 receptor in vitro assay (Table 1). It counts as cell-based.
A further data set concerns the target T3, FXR (Homo sapiens, UniProt Q96RI1).
T3 sequence (Q96RI1 262-486 limits assumed): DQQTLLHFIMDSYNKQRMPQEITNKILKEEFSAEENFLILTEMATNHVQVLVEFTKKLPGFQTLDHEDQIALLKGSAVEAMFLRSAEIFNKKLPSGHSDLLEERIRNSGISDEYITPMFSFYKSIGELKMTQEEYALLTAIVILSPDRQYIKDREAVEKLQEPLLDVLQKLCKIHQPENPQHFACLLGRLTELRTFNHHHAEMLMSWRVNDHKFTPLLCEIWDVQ
Briefly: Direct comparison 6-ethyl vs 6-methyl 23-methyl cholic acid: FXR. It is filed as biochemical.

Data set [3] addresses T2, TGR5. In words: Direct comparison 6-ethyl vs 6-methyl 23-methyl cholic acid: TGR5. It is filed as cell-based.
Data set [4] in a line: Choleretic effect (bile flow) in bile fistula rat, id and iv infusion. As to conditions: 1 (μmol/min)/kg bw over 1 h. It is filed as in vivo.
Data set [5] in a line: Biliary secretion and metabolism in bile fistula rat, id and iv infusion. As to conditions: rat, in vivo, 1 μmol/kg/min.
Data set [6] can be described thus: Previous study of OA tolerability in animals. It is filed as in vivo. As to the method: Therefore, OA was administered at the dose of 50 mg/kg/d in this study.
A short description of the next data set: in vitro. As to conditions: human.
A further data set addresses bovine serum albumin (Bos taurus, UniProt P02769). As to conditions: values from literature; cited from earlier work.
For data set [7] the following is noted: values from literature; cited from earlier work.
For data set [8] the following is noted: values from literature; cited from earlier work. This is another data set of the same source.

Sequence of human FXR (Q96RI1 whole entry): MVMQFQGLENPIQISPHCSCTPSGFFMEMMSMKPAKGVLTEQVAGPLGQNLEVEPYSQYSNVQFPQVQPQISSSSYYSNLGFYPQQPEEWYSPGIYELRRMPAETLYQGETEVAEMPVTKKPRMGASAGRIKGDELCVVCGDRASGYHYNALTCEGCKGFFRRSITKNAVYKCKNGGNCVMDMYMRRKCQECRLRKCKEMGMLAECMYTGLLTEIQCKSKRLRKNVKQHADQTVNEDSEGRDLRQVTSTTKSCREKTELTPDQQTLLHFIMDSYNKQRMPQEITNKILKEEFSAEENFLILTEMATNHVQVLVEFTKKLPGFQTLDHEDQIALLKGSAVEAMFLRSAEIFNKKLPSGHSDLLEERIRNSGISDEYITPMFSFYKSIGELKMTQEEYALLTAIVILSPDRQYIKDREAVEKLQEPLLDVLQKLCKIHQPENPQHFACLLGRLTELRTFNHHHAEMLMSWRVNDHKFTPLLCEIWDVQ
T1 sequence (Q96RI1 whole entry): as above
T1 sequence (P28700 whole entry partner): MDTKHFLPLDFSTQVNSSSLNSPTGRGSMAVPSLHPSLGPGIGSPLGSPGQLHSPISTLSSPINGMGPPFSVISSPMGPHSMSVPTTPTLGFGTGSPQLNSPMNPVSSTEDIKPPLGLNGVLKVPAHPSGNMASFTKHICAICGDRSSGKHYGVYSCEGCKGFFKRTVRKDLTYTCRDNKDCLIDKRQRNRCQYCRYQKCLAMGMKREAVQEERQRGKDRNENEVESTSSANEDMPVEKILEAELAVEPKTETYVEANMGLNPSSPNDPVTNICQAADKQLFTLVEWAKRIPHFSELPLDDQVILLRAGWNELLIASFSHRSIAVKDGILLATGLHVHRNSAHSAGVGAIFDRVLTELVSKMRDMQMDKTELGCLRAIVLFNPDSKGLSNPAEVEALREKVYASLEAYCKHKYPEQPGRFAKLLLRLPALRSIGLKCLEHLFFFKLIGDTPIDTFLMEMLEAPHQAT
Sequence of bovine serum albumin (P02769 25-607): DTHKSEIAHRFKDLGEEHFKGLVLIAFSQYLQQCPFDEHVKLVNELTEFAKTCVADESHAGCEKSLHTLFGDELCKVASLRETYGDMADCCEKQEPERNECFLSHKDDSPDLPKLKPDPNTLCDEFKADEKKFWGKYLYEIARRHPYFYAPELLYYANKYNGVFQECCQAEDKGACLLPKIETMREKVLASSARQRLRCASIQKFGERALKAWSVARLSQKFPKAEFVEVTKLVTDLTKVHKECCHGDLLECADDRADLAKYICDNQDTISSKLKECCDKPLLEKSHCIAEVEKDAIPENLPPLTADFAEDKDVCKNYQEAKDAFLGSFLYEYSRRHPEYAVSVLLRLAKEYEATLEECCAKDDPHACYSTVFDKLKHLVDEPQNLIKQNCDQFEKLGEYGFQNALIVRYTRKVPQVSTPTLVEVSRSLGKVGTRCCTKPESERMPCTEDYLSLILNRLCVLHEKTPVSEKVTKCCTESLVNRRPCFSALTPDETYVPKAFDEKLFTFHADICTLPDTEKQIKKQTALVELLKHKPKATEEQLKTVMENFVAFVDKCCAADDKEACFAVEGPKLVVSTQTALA
Procedure for hFXR: COS1 cells were plated in 96-well plates at a density of 2.5×10^4 cells/well in DMEM supplemented with 10% (v/v) charcoal-stripped FBS, cultured for 24 h, and then transfected with 25 ng of hFXR expression plasmid (pCMX-hFXR), 25 ng of mouse (m) retinoid X receptor α (RXRα) expression plasmid (pCMX-mRXRa), 50 ng of reporter plasmid (pEcREx7-Luc) and 50 ng of pCMVβ as internal control in each well, using the Lipofectamine 2000 reagent. After 24 h, cells were washed twice with PBS and treated with different concentrations of each compound in fresh DMEM supplemented with 10% (v/v) charcoal-stripped FBS for 24 h. After treatment, the cells were lysed with 50 μl of lysis buffer by a freeze-thaw cycle and subjected to both luciferase and β-galactosidase assays as described below. Normalized luciferase values were determined by dividing the luciferase activity by the β-galactosidase activity.
Assays were performed in triplicate or quadruplicate for each condition. EC50 values were determined by probit analysis. […] After subtracting the average value of the basal (vehicle-treated) condition, values were applied to EC50 and/or efficacy determinations. Calculation of average EC50 and comparison of the EC50 between different compounds were performed after logarithm transformation.
Procedure for human FXR: Activity on FXR was assayed by fluorescence resonance energy transfer (FRET) for recruitment of the SRC-1 peptide to human FXR using a cell-free ELiSA.

The term EC50 denotes the concentration at which the effect is half-maximal. As for `C[C@H]1[C@@H](O)C2C3CC[C@H]([C@H](C)C[C@H](C)C(=O)O)[C@@]3(C)[C@@H](O)CC2[C@@]2(C)CC[C@@H](O)C[C@@H]12` (stereo partly drawn), the “FXR Efficacy” value at hFXR (% of activity vs. 10 μM 6ECDCA) came out at 0.76%. In addition, the EC50 is 22.8 µM on hFXR (Table 3) and 0.8 µM on TGR5 [1] (Table 3). The “EC50 ratio (TGR5/FXR)” value on TGR5 [1] was determined as 0.035. In addition, on TGR5 [1] (% of activity vs. 10 μM LCA), the “TGR5 Efficacy” value is recorded as 75.6%.
Turning to `C[C@H]1[C@@H](O)C2C3CC[C@H]([C@H](C)CCC(=O)O)[C@@]3(C)CCC2[C@@]2(C)CC[C@@H](O)C[C@@H]12` (stereo partly drawn) [Compound 6α-MeCDCA], on human FXR, the EC50 amounted to 0.21 µM and the “FXR Data Efficacy” value was 148%. At TGR5 [2], the EC50 was found to be 0.37 µM and the “TGR5 Data Efficacy” value is on record as 119%.
As for `C[C@H]1[C@@H](O)[C@@H]2[C@H](C[C@H](O)[C@]3(C)[C@@H]([C@H](C)C[C@H](C)C(=O)O)CC[C@@H]23)[C@@]2(C)CC[C@@H](O)C[C@@H]12` [Ih3, 23(S)-Methyl-6α-methyl-3α,7α,12α-trihydroxy-5β-cholan-24-oic acid], the EC50 came out at 10 µM at FXR (first experiment, read-out: FXR I exp EC50); 7.8 µM at FXR (second experiment, read-out: FXR II exp EC50); 1.7 µM on TGR5 [3] (first experiment, read-out: TGR5 I exp EC50); 3 µM on TGR5 [3] (second experiment, read-out: TGR5 II exp EC50).
One may read the fraction unbound as the share of the substance not bound to proteins or other matrix. Lower therefore signals little free substance. As for `CC[C@H]1[C@@H](O)[C@@H]2[C@H](C[C@H](O)[C@]3(C)[C@@H]([C@H](C)C[C@@H](C)C(=O)O)CC[C@@H]23)[C@@]2(C)CC[C@@H](O)C[C@@H]12` [Ii3e, 6α-ethyl-(23R)-methyl-3α,7α,12α trihydroxy-5β-cholan-24-oic acid], the “SV0: maximum bile secretion rate” value in data set [4] (id infusion) is 81 ± 8 (μL/min)/kg bw; in data set [4] (iv infusion), “(90 ± 5) (μL/min)/kg bw”. Also, the fraction unbound at 4 h in data set [5] came to 0.68 ± 0.08; in data set [5] (iv) it was 0.65.
`CC1(C)CC[C@]2(C(=O)O)CC[C@]3(C)C(=CC[C@@H]4[C@@]5(C)CC[C@H](O)C(C)(C)[C@@H]5CC[C@]43C)[C@@H]2C1` [OA, oleanolic acid]: the toxicity result in data set [6] (100 mg/kg/day) is “some signs of toxicity”. In addition, the tolerability entry in data set [6] (lower dose) is recorded as “well tolerated”.
`CN[C@@H]1C[C@H]2O[C@@](C)([C@@H]1OC)n1c3ccccc3c3c4c(c5c6ccccc6n2c5c31)C(=O)NC4` [Staurosporine] returned an EC50 at 4 h in the data set “in vitro” of 15 µM.
Regarding `C[C@H](CCC(=O)NCCS(=O)(=O)O)[C@H]1CC[C@H]2[C@@H]3[C@H](O)C[C@@H]4C[C@H](O)CC[C@]4(C)[C@H]3CC[C@]12C` [TCDCA], the “Albumin Binding” value at bovine serum albumin is given as 70* %. Further, in data set [7], the “LogPA- (1-octanol-water partition coefficient, ionized species)” value was 0.9*. In [8], the “CMC […] Na+” value was 3.0* mM.
In the case of `C[C@H](CCC(=O)NCCS(=O)(=O)O)[C@H]1CC[C@H]2[C@@H]3[C@@H](O)C[C@@H]4C[C@H](O)CC[C@]4(C)[C@H]3CC[C@]12C` [TUDCA], the “Albumin Binding” value at bovine serum albumin is on record as 67* %. The “LogPA- (1-octanol-water partition coefficient, ionized species)” value in data set [7] is on record as 1.1*. The “CMC […] Na+” value in data set [8] was 2.2* mM.
In turn, `CC/C(=C(\c1ccccc1)c1ccc(OCCN(C)C)cc1)c1ccccc1` [Tamoxifen] came in with an EC50 at 4 h in “in vitro” (HepG2 cells) of 47 µM.
